{"source": "the OligoGym collection", "note": "Oligonucleotides are written 5' to 3', each unit as a sugar letter and its base; * is a phosphorothioate linkage, no mark a phosphodiester; rarer units and linkages stand in square brackets, end groups in braces. Plain capitals give the bases only. d = 2'-deoxy (DNA); r = 2'-OH (RNA); further: test concentration or dose not given here"}
{"molecular_target": "UBE2H", "assay": "reporter assay of Huesken 2005", "settings": "siRNA", "units": {"normalised inhibition (eCFP-eYFP dual reporter)": "%"}}
{"substance": "sense rArArArArUrUrArArArGrArGrUrArCrArUrCrCdTdT / antisense rGrGrArUrGrUrArCrUrCrUrUrUrArArUrUrUrUdCdT", "normalised inhibition (eCFP-eYFP dual reporter)": 70.5}
{"substance": "sense rArArArGrUrUrArGrArGrUrGrGrArCrCrUrArCdTdT / antisense rGrUrArGrGrUrCrCrArCrUrCrUrArArCrUrUrUdCdC", "normalised inhibition (eCFP-eYFP dual reporter)": 50}
{"substance": "sense rArArArUrCrUrCrCrArUrCrUrArUrArGrGrArUdTdT / antisense rArUrCrCrUrArUrArGrArUrGrGrArGrArUrUrUdGdA", "normalised inhibition (eCFP-eYFP dual reporter)": 96.4}
{"substance": "sense rArArCrArCrCrArUrArUrGrArArGrGrCrGrGrAdTdT / antisense rUrCrCrGrCrCrUrUrCrArUrArUrGrGrUrGrUrUdCdC", "normalised inhibition (eCFP-eYFP dual reporter)": 67.8}
{"substance": "sense rArArCrCrCrCrArUrArGrArUrCrCrUrCrUrCrAdTdT / antisense rUrGrArGrArGrGrArUrCrUrArUrGrGrGrGrUrUdAdG", "normalised inhibition (eCFP-eYFP dual reporter)": 49.4}
{"substance": "sense rArArGrUrUrArGrArGrUrGrGrArCrCrUrArCrCdTdT / antisense rGrGrUrArGrGrUrCrCrArCrUrCrUrArArCrUrUdTdC", "normalised inhibition (eCFP-eYFP dual reporter)": 64.2}
{"substance": "sense rArArUrArUrArUrUrUrGrArGrUrCrCrUrUrCrCdTdT / antisense rGrGrArArGrGrArCrUrCrArArArUrArUrArUrUdGdG", "normalised inhibition (eCFP-eYFP dual reporter)": 41.6}
{"substance": "sense rArCrArGrCrUrCrUrCrUrArUrGrArUrCrUrUrAdTdT / antisense rUrArArGrArUrCrArUrArGrArGrArGrCrUrGrUdCdC", "normalised inhibition (eCFP-eYFP dual reporter)": 95.8}
{"substance": "sense rArCrGrCrCrArCrGrGrArGrGrArGrGrCrGrCrUdTdT / antisense rArGrCrGrCrCrUrCrCrUrCrCrGrUrGrGrCrGrUdAdT", "normalised inhibition (eCFP-eYFP dual reporter)": 71.9}
{"substance": "sense rArCrUrUrGrGrArCrArGrCrUrCrUrCrUrArUrGdTdT / antisense rCrArUrArGrArGrArGrCrUrGrUrCrCrArArGrUdTdT", "normalised inhibition (eCFP-eYFP dual reporter)": 86}
{"substance": "sense rArGrArGrGrGrUrArCrCrGrGrGrGrArCrArGrCdTdT / antisense rGrCrUrGrUrCrCrCrCrGrGrUrArCrCrCrUrCrUdTdC", "normalised inhibition (eCFP-eYFP dual reporter)": 65}
{"substance": "sense rArGrGrArArCrUrGrUrGrUrGrUrCrUrArGrArUdTdT / antisense rArUrCrUrArGrArCrArCrArCrArGrUrUrCrCrUdGdA", "normalised inhibition (eCFP-eYFP dual reporter)": 100}
{"substance": "sense rArGrGrGrUrArCrCrGrGrGrGrArCrArGrCrUrCdTdT / antisense rGrArGrCrUrGrUrCrCrCrCrGrGrUrArCrCrCrUdCdT", "normalised inhibition (eCFP-eYFP dual reporter)": 77.2}
{"substance": "sense rArGrGrUrUrArCrGrArUrCrCrUrGrGrGrArGrGdTdT / antisense rCrCrUrCrCrCrArGrGrArUrCrGrUrArArCrCrUdCdA", "normalised inhibition (eCFP-eYFP dual reporter)": 84.1}
{"molecular_target": "UFC1", "assay": "reporter assay of Huesken 2005", "settings": "siRNA", "units": {"normalised inhibition (eCFP-eYFP dual reporter)": "%"}}
{"substance": "sense rCrUrGrArCrGrGrArUrCrArUrUrUrCrArArArCdTdT / antisense rGrUrUrUrGrArArArUrGrArUrCrCrGrUrCrArGdGdC", "normalised inhibition (eCFP-eYFP dual reporter)": 65.7}
{"substance": "sense rCrUrGrArUrCrUrGrArUrUrCrArGrArArGrGrGdTdT / antisense rCrCrCrUrUrCrUrGrArArUrCrArGrArUrCrArGdGdG", "normalised inhibition (eCFP-eYFP dual reporter)": 73.2}
{"substance": "sense rCrUrGrGrArGrUrCrCrArArCrArArGrGrArArGdTdT / antisense rCrUrUrCrCrUrUrGrUrUrGrGrArCrUrCrCrArGdTdC", "normalised inhibition (eCFP-eYFP dual reporter)": 66.3}
{"substance": "sense rCrUrGrGrGrUrCrCrArUrGrGrCrUrGrGrCrArGdTdT / antisense rCrUrGrCrCrArGrCrCrArUrGrGrArCrCrCrArGdCdC", "normalised inhibition (eCFP-eYFP dual reporter)": 60.5}
{"substance": "sense rCrUrUrArUrCrCrGrGrUrArUrGrUrGrGrArGrAdTdT / antisense rUrCrUrCrCrArCrArUrArCrCrGrGrArUrArArGdGdG", "normalised inhibition (eCFP-eYFP dual reporter)": 78.4}
{"substance": "sense rGrArArArUrArUrGrArGrUrUrUrGrArCrArUrCdTdT / antisense rGrArUrGrUrCrArArArCrUrCrArUrArUrUrUrCdAdG", "normalised inhibition (eCFP-eYFP dual reporter)": 66.9}
{"substance": "sense rGrArArCrUrCrGrGrUrGrGrUrUrUrGrGrArArAdTdT / antisense rUrUrUrCrCrArArArCrCrArCrCrGrArGrUrUrCdCdT", "normalised inhibition (eCFP-eYFP dual reporter)": 97.7}
{"substance": "sense rGrArArUrGrUrGrCrCrCrArArArUrUrUrGrGrAdTdT / antisense rUrCrCrArArArUrUrUrGrGrGrCrArCrArUrUrCdCdT", "normalised inhibition (eCFP-eYFP dual reporter)": 67.9}
{"substance": "sense rGrArCrArGrCrArArArGrArUrGrUrArCrArGrGdTdT / antisense rCrCrUrGrUrArCrArUrCrUrUrUrGrCrUrGrUrCdTdT", "normalised inhibition (eCFP-eYFP dual reporter)": 50.1}
{"substance": "sense rGrArCrGrGrArUrCrArUrUrUrCrArArArCrCrUdTdT / antisense rArGrGrUrUrUrGrArArArUrGrArUrCrCrGrUrCdAdG", "normalised inhibition (eCFP-eYFP dual reporter)": 123}
{"substance": "sense rGrArUrCrArUrUrUrCrArArArCrCrUrUrUrGrUdTdT / antisense rArCrArArArGrGrUrUrUrGrArArArUrGrArUrCdCdG", "normalised inhibition (eCFP-eYFP dual reporter)": 98.8}
{"substance": "sense rGrCrArArArGrArUrGrUrArCrArGrGrGrGrUrGdTdT / antisense rCrArCrCrCrCrUrGrUrArCrArUrCrUrUrUrGrCdTdG", "normalised inhibition (eCFP-eYFP dual reporter)": 108}
{"substance": "sense rGrCrArGrUrUrCrCrUrGrArGrCrUrGrGrArUrGdTdT / antisense rCrArUrCrCrArGrCrUrCrArGrGrArArCrUrGrCdAdA", "normalised inhibition (eCFP-eYFP dual reporter)": 80.1}
{"substance": "sense rGrCrCrArGrGrArArUrGrUrGrCrCrCrArArArUdTdT / antisense rArUrUrUrGrGrGrCrArCrArUrUrCrCrUrGrGrCdCdC", "normalised inhibition (eCFP-eYFP dual reporter)": 77.2}
{"substance": "sense rGrCrCrCrCrArGrArArArUrUrGrCrArGrUrUrCdTdT / antisense rGrArArCrUrGrCrArArUrUrUrCrUrGrGrGrGrCdAdG", "normalised inhibition (eCFP-eYFP dual reporter)": 61.7}
{"substance": "sense rGrCrCrUrGrArCrGrGrArUrCrArUrUrUrCrArAdTdT / antisense rUrUrGrArArArUrGrArUrCrCrGrUrCrArGrGrCdAdT", "normalised inhibition (eCFP-eYFP dual reporter)": 117}
{"substance": "sense rGrCrGrArCrUrGrArArGrGrArGrGrArArUrArUdTdT / antisense rArUrArUrUrCrCrUrCrCrUrUrCrArGrUrCrGrCdTdG", "normalised inhibition (eCFP-eYFP dual reporter)": 107}
{"substance": "sense rGrCrUrGrArCrArArCrGrArUrUrGrGrUrUrCrCdTdT / antisense rGrGrArArCrCrArArUrCrGrUrUrGrUrCrArGrCdAdT", "normalised inhibition (eCFP-eYFP dual reporter)": 78}
{"substance": "sense rGrCrUrGrGrCrArGrUrGrGrArArArUrCrCrCrUdTdT / antisense rArGrGrGrArUrUrUrCrCrArCrUrGrCrCrArGrCdCdA", "normalised inhibition (eCFP-eYFP dual reporter)": 48.5}
{"substance": "sense rGrGrArCrUrArGrCrUrCrArUrCrUrCrArUrGrGdTdT / antisense rCrCrArUrGrArGrArUrGrArGrCrUrArGrUrCrCdAdA", "normalised inhibition (eCFP-eYFP dual reporter)": 61.7}
{"substance": "sense rGrGrArUrGrGrArArArGrArCrArGrCrArArArGdTdT / antisense rCrUrUrUrGrCrUrGrUrCrUrUrUrCrCrArUrCrCdAdG", "normalised inhibition (eCFP-eYFP dual reporter)": 103}
{"substance": "sense rGrGrCrArArArArUrArUrGrCrCrUrGrArCrGrGdTdT / antisense rCrCrGrUrCrArGrGrCrArUrArUrUrUrUrGrCrCdAdC", "normalised inhibition (eCFP-eYFP dual reporter)": 99.9}
{"substance": "sense rGrGrCrUrCrUrGrGrGrGrCrUrGrGrGrUrCrCrAdTdT / antisense rUrGrGrArCrCrCrArGrCrCrCrCrArGrArGrCrCdAdT", "normalised inhibition (eCFP-eYFP dual reporter)": 69.9}
{"substance": "sense rGrGrGrUrGrCrArGrCrGrArCrUrGrArArGrGrAdTdT / antisense rUrCrCrUrUrCrArGrUrCrGrCrUrGrCrArCrCrCdAdC", "normalised inhibition (eCFP-eYFP dual reporter)": 85.9}
{"substance": "sense rGrUrArUrArUrCrCrArUrGrArCrCrUrCrCrUrGdTdT / antisense rCrArGrGrArGrGrUrCrArUrGrGrArUrArUrArCdCdA", "normalised inhibition (eCFP-eYFP dual reporter)": 96}
{"substance": "sense rGrUrGrGrArGrArArCrArArCrArArGrArArUrGdTdT / antisense rCrArUrUrCrUrUrGrUrUrGrUrUrCrUrCrCrArCdAdT", "normalised inhibition (eCFP-eYFP dual reporter)": 68.9}
{"substance": "sense rUrArCrUrGrCrCrCrCrArGrArArArUrUrGrCrAdTdT / antisense rUrGrCrArArUrUrUrCrUrGrGrGrGrCrArGrUrAdGdT", "normalised inhibition (eCFP-eYFP dual reporter)": 52.2}
{"substance": "sense rUrCrArGrUrCrCrCrUrUrArUrCrCrGrGrUrArUdTdT / antisense rArUrArCrCrGrGrArUrArArGrGrGrArCrUrGrAdTdA", "normalised inhibition (eCFP-eYFP dual reporter)": 88.9}
{"substance": "sense rUrCrArUrCrCrArArCrArCrArArArGrArGrArAdTdT / antisense rUrUrCrUrCrUrUrUrGrUrGrUrUrGrGrArUrGrAdCdG", "normalised inhibition (eCFP-eYFP dual reporter)": 93}
{"substance": "sense rUrGrArArArUrArUrGrArGrUrUrUrGrArCrArUdTdT / antisense rArUrGrUrCrArArArCrUrCrArUrArUrUrUrCrAdGdG", "normalised inhibition (eCFP-eYFP dual reporter)": 75.3}
{"substance": "sense rUrGrArCrArArCrGrArUrUrGrGrUrUrCrCrGrAdTdT / antisense rUrCrGrGrArArCrCrArArUrCrGrUrUrGrUrCrAdGdC", "normalised inhibition (eCFP-eYFP dual reporter)": 76.1}
{"substance": "sense rUrGrArCrArUrUrCrCrUrArUrCrArCrArUrArUdTdT / antisense rArUrArUrGrUrGrArUrArGrGrArArUrGrUrCrAdAdA", "normalised inhibition (eCFP-eYFP dual reporter)": 115}
{"substance": "sense rUrGrCrCrCrCrArGrArArArUrUrGrCrArGrUrUdTdT / antisense rArArCrUrGrCrArArUrUrUrCrUrGrGrGrGrCrAdGdT", "normalised inhibition (eCFP-eYFP dual reporter)": 44.9}
{"substance": "sense rUrGrGrCrArGrUrGrGrArArArUrCrCrCrUrGrAdTdT / antisense rUrCrArGrGrGrArUrUrUrCrCrArCrUrGrCrCrAdGdC", "normalised inhibition (eCFP-eYFP dual reporter)": 71.4}
{"substance": "sense rUrGrGrGrUrCrCrArUrGrGrCrUrGrGrCrArGrUdTdT / antisense rArCrUrGrCrCrArGrCrCrArUrGrGrArCrCrCrAdGdC", "normalised inhibition (eCFP-eYFP dual reporter)": 35.2}
{"substance": "sense rUrGrGrUrArUrArUrCrCrArUrGrArCrCrUrCrCdTdT / antisense rGrGrArGrGrUrCrArUrGrGrArUrArUrArCrCrAdGdC", "normalised inhibition (eCFP-eYFP dual reporter)": 31.4}
{"substance": "sense rUrGrGrUrUrCrCrGrArCrUrGrGrArGrUrCrCrAdTdT / antisense rUrGrGrArCrUrCrCrArGrUrCrGrGrArArCrCrAdAdT", "normalised inhibition (eCFP-eYFP dual reporter)": 71.9}
{"substance": "sense rUrUrGrGrArArArArUrGrCrUrGrGrUrArUrArUdTdT / antisense rArUrArUrArCrCrArGrCrArUrUrUrUrCrCrArAdAdC", "normalised inhibition (eCFP-eYFP dual reporter)": 56.8}
